Measurements from a melting point compilation (Tetko et al.; mined from patent text by program, amines drawn as free bases though some values may be those of a salt).

`CCOC(=O)CCCCC1CC(n2c3ccccc3c3ccccc32)c2ccccc2N1C(=O)c1ccc(OC)c(OC)c1` (stereo unspecified) gave a melting point of 195 to 196 °C.
`Cc1cc(C)c(O)cn1` showed a melting point of 146 to 148 °C.
With `COc1cc(C(C)C(=O)NCC(COC(=O)C(C)(C)C)Cc2ccc(C(C)(C)C)cc2)ccc1NS(C)(=O)=O` (stereo unspecified) the melting point was 54 to 57 °C.
In the case of `COc1cc(Nc2nccc(-c3ccc(NCCN)nc3)n2)cc(OC)c1OC`, the melting point was 117 to 118 °C.
For `CS(=O)(=O)c1ccc(C(CC2CCCC2)C(=O)O)cc1F` (stereo unspecified), the melting point was 115 to 117 °C.
Molecule `CC(=O)OC1CCCN(C(=O)c2ccc(NC(=O)c3ccccc3C)cc2)c2ccccc21` (stereo unspecified) has a melting point of 193 to 194 °C.
Molecule `C=CCN(CC=C)CCCCC(=O)c1ccc2c(c1)Cc1cc(C(=O)CCCCN(CC=C)CC=C)ccc1O2` has a melting point of 54 to 55 °C.
With `O=c1[nH]c2cc(Cl)ccc2c(O)c1SC/C=C\c1ccccc1` the melting point was > 300 °C.
Molecule `CCCCc1ncc(C(=O)O)s1` has a melting point of 97 °C.
In the case of `CN(C)C(=Nc1ccccc1N1CCOCC1)N1CCOCC1`, the melting point was 126 to 128 °C.
In the case of `O=C1Nc2cc(Cl)ccc2Sc2cscc21`, the melting point was 267 to 269 °C.
Molecule `O=C(N[C@H]1CC[C@H](CCN2CCN(c3nccc4c3CCO4)CC2)CC1)c1ccc(-c2cccnc2)cc1` has a melting point of 218 °C.
Work on `O=C1N(CC2CCCO2)c2ccccc2C12COc1cc3c(cc12)C(=NO)CO3` (stereo unspecified) yielded a melting point of 82 to 100 °C.
`CC(C)c1cc(CCC(=O)NCc2cccc(NC(=N)c3cccs3)c2)cc(C(C)C)c1O` showed a melting point of 144 to 145 °C.
`CNC(=O)[C@@H](NC(=O)[C@H](CC(=O)NOCc1ccccc1)CC(C)C)C(C)(C)C` gave a melting point of 128 to 129 °C.
In the case of `Cc1c(-c2cc(Nc3cc4n(n3)CCN(C)C4)c(=O)[nH]n2)cccc1N1Cc2ccc(C(C)(C)C)cc2C1=O`, the melting point was 208 to 210 °C.
Molecule `CCCCN1C(=O)NC(Cc2ccc(C)s2)C1=O` (stereo unspecified) has a melting point of 107 °C.
For `Cc1sc2[nH]c(=S)nc(N)c2c1C`, the melting point was > 260 °C.
For `CC1=C(C(=O)OC2CN(C(c3ccccc3)c3ccccc3)C2)C(c2cccc([N+](=O)[O-])c2)C(C(=O)OC(C)C)=C(N)N1` (stereo unspecified), the melting point was 104 to 107 °C.
In the case of `CCCn1c(-c2ccc(-n3ccnc3)cc2)cnc1[C@H](Cc1ccccn1)N(C=O)c1cc2cc(C(F)(F)F)ccc2o1`, the melting point was 92 to 98 °C.
`N#CC(CCSC(F)(F)F)S(=O)CCC(F)(F)C(F)(F)F` (stereo unspecified) showed a melting point of 41 to 43 °C.
Work on `CCOC(=O)Oc1ccc(S(=O)(=O)N2c3cc(F)c(F)c(F)c3-n3cccc3C2CC)cc1` (stereo unspecified) yielded a melting point of 131 to 132 °C.
In the case of `CCOc1nn(-c2ccc(C(F)(F)F)cn2)cc1CCCOc1cccc(OC)c1CC(=O)O`, the melting point was 150 to 151 °C.
With `Cc1c(Br)cnc(NC(=O)C2CC2)c1[N+](=O)[O-]` the melting point was 205 °C.
`COc1ccc(CN(C)CCc2ccc(NC(=O)c3cccc4c(=O)c5c(OC)c(OC)c(OC)cc5[nH]c34)cc2)cc1OC` showed a melting point of 158 °C.
With `O=C(NC1CCCCC1)c1cccc(Cn2cnc3ccccc32)c1` the melting point was 132 to 134 °C.
For `Nc1nc(N)nc(-c2ccc(-c3ccc(F)cc3)cc2)n1`, the melting point was > 260 °C.
`O=c1[nH]c(=S)n2c3c1cnn3C(c1cccc(F)c1)=CC2` showed a melting point of 298 to 300 °C.
With `N#CSc1cc(C(=O)O)cc([N+](=O)[O-])c1C(=O)c1ccccc1` the melting point was 184 °C.
In the case of `COC(=O)C1(CCCCl)Oc2ccccc2CCC1O` (stereo unspecified), the melting point was 107 to 109 °C.
`COc1ccc(-c2cnc3ccc(-c4nnc(SCc5cccc(C#N)c5)o4)cn23)cc1` gave a melting point of 143 to 144 °C.
In the case of `CC1(CCc2ccccc2)OC(=O)CC(=O)O1`, the melting point was 63 to 65 °C.
For `OC1(C(Br)Br)O[C@H](COCc2ccccc2)[C@@H](OCc2ccccc2)[C@H](OCc2ccccc2)[C@H]1OCc1ccccc1` (stereo partly specified), the melting point was 77 to 78 °C.
`CC(C)(C)c1nc(C=C2SC(=S)N(N)C2=O)nc(C(C)(C)C)c1O` showed a melting point of 194 to 196 °C.
Molecule `O=C(O)c1cc(Br)sc1Cl` has a melting point of 159 to 160 °C.
With `Cc1ncc(C(=O)O)nc1C` the melting point was 187 °C.
In the case of `CC(C)(NCCCn1cnc(CO)c1)c1ccc(-c2ccccc2)cc1`, the melting point was 128 to 130 °C.
`COC[C@H]1CCCN1S(=O)(=O)c1ccc2c(c1)C(=O)C(=O)N2` gave a melting point of 161 to 164 °C.
`CCN(CC)C(=O)/C=C/CSc1nc(N)cc(Cl)n1` showed a melting point of 143 to 145 °C.
`O=c1[nH]c2c(F)cc([N+](=O)[O-])cc2o1` showed a melting point of 177 to 179 °C.
`CCCOc1c([N+](=O)[O-])cccc1[N+](=O)[O-]` gave a melting point of 119 to 120 °C.
Work on `COC(=O)c1ccc(N=C(Nc2ccc(C(=O)OC)cc2)c2ccccc2)cc1` yielded a melting point of 180 to 182 °C.
`N#Cc1c(OCC(F)(F)F)nc(C2CC2)nc1N1CCc2ccccc2CC1` gave a melting point of 116 to 118 °C.
`COC(=O)c1ccc(-c2coc3ccc(-c4nnc(C)o4)cc23)c(Cl)c1` gave a melting point of 171 to 172 °C.
`CC(=O)n1ccc(O)n1` showed a melting point of 191 °C.
In the case of `CC1CC(=O)C=C2C=CC3C4CCC(=O)C4(C)CCC3C21C` (stereo unspecified), the melting point was 171 °C.
Molecule `O=C(Nc1ccc2nc(CN3CCCC3)ccc2c1)C1CCN(c2ccc(Cl)cc2)CC1` has a melting point of 204 to 206 °C.
`COc1cc(C(=O)N(C)CC(CCN2CCC(C(=O)c3nc4ccccc4n3Cc3ccccn3)CC2)c2ccc(F)cc2)cc(OC)c1OC` (stereo unspecified) gave a melting point of 30 to 35 °C.
In the case of `CN1CCN(C(=O)c2cc(-c3ccccc3)c(=O)[nH]c2-c2c(Cl)cccc2C#N)CC1`, the melting point was 250 to 253 °C.
Work on `CON1CCC2(CC1)C(O)=C(c1c(C)cc(C)cc1C)C(=O)N2O` yielded a melting point of 152 to 154 °C.
In the case of `C=CCOC(=O)Cc1cccc(NC(=O)NCNC(=O)c2ccccc2C(=O)c2ccccc2)c1`, the melting point was 125 to 127 °C.
Molecule `Cc1c(C)c2c(c(C)c1OCc1ccccc1)CC[C@@](C)(CC(=O)CC(=O)OCc1ccccc1)O2` has a melting point of 72.5 to 74 °C.
`COc1ccc(N2C(=O)C(O[Si](C(C)C)(C(C)C)C(C)C)C2c2ccco2)cc1` (stereo unspecified) showed a melting point of 109 to 110 °C.
Molecule `C[Si](C)(C)OC1(C(=O)c2ccccc2)CC2CCC(C1)N2CCCC(c1ccc(F)cc1)c1ccc(F)cc1` (stereo unspecified) has a melting point of 111 to 113 °C.
In the case of `CN1C(=O)CCC(C)(C)c2cc(C(=O)Nc3ccc(C(=O)O)cc3)ccc21`, the melting point was > 275 °C.
With `Cc1cc2c(cc1Sc1ccc(C(=O)O)cc1)C(C)(C)CCC2(C)C` the melting point was 253 to 254 °C.
Molecule `COc1ccc2[nH]c(CCN(C)C)c(CSc3ccccc3)c2c1` has a melting point of 85 to 88 °C.
For `CCN(CC)C(=O)Nc1c(C)c(C)c2c(c1C)C(c1ccc(C(C)C)cc1)CO2` (stereo unspecified), the melting point was 79 to 81 °C.
For `Cc1nccc(C(N)=O)c1[N+](=O)[O-]`, the melting point was 203 to 204 °C.
For `CCc1c(CO)[nH]c(=O)c(I)c1Oc1cc(C)cc(C)c1`, the melting point was 70 °C.
For `C=C(Cl)C[C@H](CC(=O)O)C(=O)N[C@@H](CC1CCCCC1)[C@@H](O)[C@@H](O)CC(C)C`, the melting point was 193 to 196 °C.
In the case of `CN1C(=O)C(c2ccc(OC(F)(F)F)c(F)c2)(c2ccc(F)c(-c3cncc(F)c3)c2)N=C1N` (stereo unspecified), the melting point was 91 to 97 °C.
Molecule `Cn1nnn(-c2c(Cl)ccc(C(=O)C3C(=O)CCCC3=O)c2Cl)c1=O` has a melting point of 138 to 140 °C.
Molecule `NC(=O)CC[C@H](Nc1ccc(CC(=O)O)cc1)C(=O)O` has a melting point of 198 to 200 °C.
For `CN1CS(=O)c2ccccc21` (stereo unspecified), the melting point was 70 to 73.5 °C.
`CCOC(=O)c1c[nH]nc1NCc1ccc(OC)c(OC2CCCC2)c1` gave a melting point of 102 to 104 °C.
For `c1cc(NC2CC2)ccn1`, the melting point was 111 to 112 °C.
`O=S1(=O)NCCN(C2CC2)c2ccc(Oc3ccccc3)cc21` showed a melting point of 119 °C.
`O=C(/C=C/c1ccc(Sc2ccccc2[N+](=O)[O-])c(Cl)c1Cl)N1CCOCC1` showed a melting point of 210 to 213 °C.
For `COc1ccc(C(=O)COc2ccccc2Br)cc1`, the melting point was 104 °C.
Work on `COC(=O)c1cccc(CCN(C)CCCC(C(=O)OC)(c2ccc(OC)c(OC)c2)C(C)C)c1` (stereo unspecified) yielded a melting point of 87 to 90 °C.
In the case of `CCOC(=O)N1CCN(c2nc(N)ccc2[N+](=O)[O-])CC1`, the melting point was 132 to 134 °C.
`CCCCCC(=O)CCC1CCC(CCCCCCCC(=O)O)O1` (stereo unspecified) gave a melting point of 26 to 28 °C.
Work on `CC(=O)Nc1cccc(S(=O)(=O)N2[C@H](C)CN(CC(=O)Nc3ccccc3C)C[C@@H]2C)c1` yielded a melting point of 236 to 238 °C.
`CCCOc1ccc(S(=O)(=O)N2CCN(C)CC2)cc1-c1nc2cc(N)c([N+](=O)[O-])cc2c(=O)[nH]1` gave a melting point of 270 to 271 °C.
`CC(=O)c1ccc(CCC(=O)O)c(C(=O)O)c1` gave a melting point of 76 °C.
`COc1cc2c3ccc(OC)c(OC)c3n(S(=O)(=O)c3ccc([N+](=O)[O-])cc3)c2cc1OC` gave a melting point of 188 to 189 °C.
In the case of `Nc1cc2c(Nc3ccc(OCc4ccccn4)c(Cl)c3)ncnc2cn1`, the melting point was 247 to 250 °C.
`Cc1oc(C2(C)CCCCC2)nc1CC#N` showed a melting point of 57 to 58 °C.
In the case of `O=C(c1ccc(F)cc1)c1cc(Cl)nnc1Cl`, the melting point was 71.1 to 72.6 °C.
In the case of `COc1ccc2c(c1)N(CCNC(C)=O)CC(c1ccccc1)O2` (stereo unspecified), the melting point was 153 to 154 °C.
`CC(=O)N1CCc2c(cccc2NS(=O)(=O)c2ccccc2)C1` showed a melting point of 131 to 132 °C.
Molecule `NC(=O)Cc1cc(Oc2ccc3c(ccn3C(=O)Nc3ccc(CN4CCNCC4)c(C(F)(F)F)c3)c2)ncn1` has a melting point of 173 to 180 °C.
For `COc1cc2c(cc1OC)CCCCC(C(=O)N1CCN(C(=O)c3cc(OC)c(OC)c(OC)c3)CC1)=C2`, the melting point was 170 to 171 °C.
`COC(=O)c1ccccc1NC(=O)OCC1CCN(CCNS(C)(=O)=O)CC1` showed a melting point of 106 to 108 °C.
Molecule `CCS(=O)C1(Cl)CC2CC(=O)N2C1C(=O)OCc1ccccc1` (stereo unspecified) has a melting point of 123 to 125 °C.
In the case of `CCc1nc(NC(=O)C2=C(O)c3ccc4ccccc4c3S(=O)(=O)N2C)sc1C`, the melting point was 233 to 234 °C.
`CC(C)C(=O)Nc1c(OCc2ccccc2)cc(Br)cc1[N+](=O)[O-]` showed a melting point of 197 to 198 °C.
`O=C(O)C1=Cc2cc(F)cc(Cl)c2OC1C(F)(F)F` (stereo unspecified) gave a melting point of 240 to 241 °C.
With `CCCCc1oc2ccccc2c1C(=O)NCc1ccc2c(Br)c(OCC#N)ccc2c1` the melting point was 154 to 157 °C.
Work on `COc1ccc2nc(NN)nc(-c3ccccc3)c2c1` yielded a melting point of 151 to 152 °C.
`Cc1cc(C)c2cc(-c3ccccc3)c(=O)n(CCN(C)C)c2n1` gave a melting point of 135 to 137 °C.
Work on `CC(C)(C)c1nc2c(Cl)cc(F)c(-n3c(=O)cc(C(F)(F)F)n(N)c3=O)c2o1` yielded a melting point of 90 to 92 °C.
`CC(C)(C)c1ccccc1NC(=O)OCC1(COC(=O)Nc2ccccc2C(C)(C)C)CSc2ccccc2C1=O` showed a melting point of 62 to 68 °C.
For `CCC(C)C(C)C(=O)Nc1ccc2ncnc(NC=C(C(=O)OC)C(=O)OC)c2c1` (stereo unspecified), the melting point was 216 to 217 °C.
`CC(C)N(C)C(=O)COc1cc(-c2ccccc2)nc2ccccc12` showed a melting point of 80 °C.
